Assays:
late watergrass = experiment: Test Example 1: herbicidal activity, application before weed generation under submerged conditions (Table 16, symbol A); format: in vivo, late watergrass (Echinochloa oryzicola); conditions: amount of applied herbicide 320 g/ha
Method in brief: (§1)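 Submerged Wagner pots (alluvial soil, 4 cm water) sown with weed seeds and planted with 2.5-leaf rice seedlings; emulsifiable concentrate diluted in water applied to water surface on sowing day. Held in greenhouse at 25-30 °C; injury scored 0-5 by herbicidal rate after three weeks.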

Japanese bulrush = experiment: Test Example 1: herbicidal activity, application before weed generation under submerged conditions (Table 16, symbol B); format: in vivo, Japanese bulrush (Schoenoplectus juncoides); conditions: amount of applied herbicide 320 g/ha
Method in brief: as §1

oval-leafed pondweed = experiment: Test Example 1: herbicidal activity, application before weed generation under submerged conditions (Table 16, symbol C); format: in vivo, oval-leafed pondweed (Monochoria vaginalis); conditions: amount of applied herbicide 320 g/ha
Method in brief: as §1

barnyard grass [1] = experiment: Test Example 3: herbicidal effect by foliage application, Wagner pot (Table 18, symbol H); format: in vivo, barnyard grass (Echinochloa crus-galli); conditions: 320 g/ha
Method in brief: (§2)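 Plants were sown in alluvial soil held under 0.1–0.5 cm standing water and grown 14 days in a greenhouse at 25–30 °C. An emulsifiable formulation, water-diluted to the set dose, was then sprayed onto the foliage, and effects were scored three weeks later using previously defined criteria.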

Chinese sprangletop = experiment: Test Example 3: herbicidal effect by foliage application, Wagner pot (Table 18, symbol D); format: in vivo, chinese sprangletop (Leptochloa chinensis); conditions: 320 g/ha
Method in brief: as §2

rice flat sedge = experiment: Test Example 3: herbicidal effect by foliage application, Wagner pot (Table 18, symbol E); format: in vivo, rice flat sedge (Cyperus iria); conditions: 320 g/ha
Method in brief: as §2

southern crabgrass [2] = experiment: Test Example 4: herbicidal effect by soil treatment (Table 19, symbol F); format: in vivo, southern crabgrass (Digitaria ciliaris); conditions: amount of applied herbicide 320 g/ha
Method in brief: (§3)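 Applied as a water-diluted emulsion, the compound was sprayed onto soil covering newly sown seeds. Evaluation came three weeks after application, in a greenhouse held at 25° C. to 30° C.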

green foxtail [3] = experiment: Test Example 4: herbicidal effect by soil treatment (Table 19, symbol G); format: in vivo, green foxtail (Setaria viridis); conditions: amount of applied herbicide 320 g/ha
Method in brief: as §3

barnyard grass [4] = experiment: Test Example 4: herbicidal effect by soil treatment (Table 19, symbol H); format: in vivo, barnyard grass (Echinochloa crus-galli); conditions: amount of applied herbicide 320 g/ha
Method in brief: as §3

wild oat [5] = experiment: Test Example 4: herbicidal effect by soil treatment (Table 19, symbol I); format: in vivo, wild oat (Avena fatua); conditions: amount of applied herbicide 320 g/ha
Method in brief: as §3

blackgrass [6] = experiment: Test Example 4: herbicidal effect by soil treatment (Table 19, symbol J); format: in vivo, blackgrass (Alopecurus myosuroides); conditions: amount of applied herbicide 320 g/ha
Method in brief: as §3

Italian ryegrass [7] = experiment: Test Example 4: herbicidal effect by soil treatment (Table 19, symbol K); format: in vivo, Italian ryegrass (Lolium multiflorum); conditions: amount of applied herbicide 320 g/ha
Method in brief: as §3

windgrass [8] = experiment: Test Example 4: herbicidal effect by soil treatment (Table 19, symbol L); format: in vivo, windgrass (Apera spica-venti); conditions: amount of applied herbicide 320 g/ha
Method in brief: as §3

velvetleaf [9] = experiment: Test Example 4: herbicidal effect by soil treatment (Table 19, symbol M); format: in vivo, velvetleaf (Abutilon theophrasti); conditions: amount of applied herbicide 320 g/ha
Method in brief: as §3

redroot pigweed [10] = experiment: Test Example 4: herbicidal effect by soil treatment (Table 19, symbol N); format: in vivo, redroot pigweed (Amaranthus retroflexus); conditions: amount of applied herbicide 320 g/ha
Method in brief: as §3

lambsquarters [11] = experiment: Test Example 4: herbicidal effect by soil treatment (Table 19, symbol O); format: in vivo, lambsquarters (Chenopodium album); conditions: amount of applied herbicide 320 g/ha
Method in brief: as §3

chickweed [12] = experiment: Test Example 4: herbicidal effect by soil treatment (Table 19, symbol P); format: in vivo, common chickweed (Stellaria media); conditions: amount of applied herbicide 320 g/ha
Method in brief: as §3

persian speedwell [13] = experiment: Test Example 4: herbicidal effect by soil treatment (Table 19, symbol R); format: in vivo, Persian speedwell (Veronica persica); conditions: amount of applied herbicide 320 g/ha
Method in brief: as §3

southern crabgrass [14] = experiment: Test Example 5: herbicidal effect by foliage application, plastic box (Table 20, symbol F); format: in vivo, southern crabgrass (Digitaria ciliaris); conditions: amount of applied herbicide 320 g/ha; foliage application after 14-day growth; evaluated three weeks after application
Method in brief: (§4)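 Sow seeds spot-wise in sterilized diluvial soil; cover with ~1.5 cm soil. Grow 14 days in greenhouse, 25° C. to 30° C. Spray foliage with emulsion diluted to predetermined amount. Rate effect after 3 weeks.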

green foxtail [15] = experiment: Test Example 5: herbicidal effect by foliage application, plastic box (Table 20, symbol G); format: in vivo, green foxtail (Setaria viridis); conditions: amount of applied herbicide 320 g/ha; foliage application after 14-day growth; evaluated three weeks after application
Method in brief: as §4

barnyard grass [16] = experiment: Test Example 5: herbicidal effect by foliage application, plastic box (Table 20, symbol H); format: in vivo, barnyard grass (Echinochloa crus-galli); conditions: amount of applied herbicide 320 g/ha; foliage application after 14-day growth; evaluated three weeks after application
Method in brief: as §4

wild oat [17] = experiment: Test Example 5: herbicidal effect by foliage application, plastic box (Table 20, symbol I); format: in vivo, wild oat (Avena fatua); conditions: amount of applied herbicide 320 g/ha; foliage application after 14-day growth; evaluated three weeks after application
Method in brief: as §4

blackgrass [18] = experiment: Test Example 5: herbicidal effect by foliage application, plastic box (Table 20, symbol J); format: in vivo, blackgrass (Alopecurus myosuroides); conditions: amount of applied herbicide 320 g/ha; foliage application after 14-day growth; evaluated three weeks after application
Method in brief: as §4

Italian ryegrass [19] = experiment: Test Example 5: herbicidal effect by foliage application, plastic box (Table 20, symbol K); format: in vivo, Italian ryegrass (Lolium multiflorum); conditions: amount of applied herbicide 320 g/ha; foliage application after 14-day growth; evaluated three weeks after application
Method in brief: as §4

windgrass [20] = experiment: Test Example 5: herbicidal effect by foliage application, plastic box (Table 20, symbol L); format: in vivo, windgrass (Apera spica-venti); conditions: amount of applied herbicide 320 g/ha; foliage application after 14-day growth; evaluated three weeks after application
Method in brief: as §4

velvetleaf [21] = experiment: Test Example 5: herbicidal effect by foliage application, plastic box (Table 20, symbol M); format: in vivo, velvetleaf (Abutilon theophrasti); conditions: amount of applied herbicide 320 g/ha; foliage application after 14-day growth; evaluated three weeks after application
Method in brief: as §4

redroot pigweed [22] = experiment: Test Example 5: herbicidal effect by foliage application, plastic box (Table 20, symbol N); format: in vivo, redroot pigweed (Amaranthus retroflexus); conditions: amount of applied herbicide 320 g/ha; foliage application after 14-day growth; evaluated three weeks after application
Method in brief: as §4

lambsquarters [23] = experiment: Test Example 5: herbicidal effect by foliage application, plastic box (Table 20, symbol O); format: in vivo, lambsquarters (Chenopodium album); conditions: amount of applied herbicide 320 g/ha; foliage application after 14-day growth; evaluated three weeks after application
Method in brief: as §4

chickweed [24] = experiment: Test Example 5: herbicidal effect by foliage application, plastic box (Table 20, symbol P); format: in vivo, common chickweed (Stellaria media); conditions: amount of applied herbicide 320 g/ha; foliage application after 14-day growth; evaluated three weeks after application
Method in brief: as §4

persian speedwell [25] = experiment: Test Example 5: herbicidal effect by foliage application, plastic box (Table 20, symbol R); format: in vivo, Persian speedwell (Veronica persica); conditions: amount of applied herbicide 320 g/ha; foliage application after 14-day growth; evaluated three weeks after application
Method in brief: as §4

SMILES	Herbicidal effect, A: late watergrass (late watergrass)	Herbicidal effect, B: Japanese bulrush (Japanese bulrush)	Herbicidal effect, C: oval-leafed pondweed (oval-leafed pondweed)	herbicidal effect on barnyard grass (H) (barnyard grass [1])	herbicidal effect on Chinese sprangletop (D) (Chinese sprangletop)	herbicidal effect on rice flat sedge (E) (rice flat sedge)	Herbicidal effect by soil treatment, F: southern crabgrass (southern crabgrass [2])	Herbicidal effect by soil treatment, G: green foxtail (green foxtail [3])	Herbicidal effect by soil treatment, H: barnyard grass (barnyard grass [4])	Herbicidal effect by soil treatment, I: wild oat (wild oat [5])	Herbicidal effect by soil treatment, J: blackgrass (blackgrass [6])	Herbicidal effect by soil treatment, K: Italian ryegrass (Italian ryegrass [7])	Herbicidal effect by soil treatment, L: windgrass (windgrass [8])	Herbicidal effect by soil treatment, M: velvetleaf (velvetleaf [9])	Herbicidal effect by soil treatment, N: redroot pigweed (redroot pigweed [10])	Herbicidal effect by soil treatment, O: lambsquarters (lambsquarters [11])	Herbicidal effect by soil treatment, P: chickweed (chickweed [12])	Herbicidal effect by soil treatment, R: persian speedwell (persian speedwell [13])	Herbicidal effect by foliage application, F: southern crabgrass (southern crabgrass [14])	Herbicidal effect by foliage application, G: green foxtail (green foxtail [15])	also measured
CCCC(=O)Oc1c(C)nn(C)c(=O)c1-c1c(-c2ccccc2OC(F)(F)F)sc2c(Cl)cccc12 [4-077]	3 (Herbicidal rate of 40% or more and less than 70%)	0 (Herbicidal rate of 5% or less (almost no effect))	0 (Herbicidal rate of 5% or less (almost no effect))	5 (Herbicidal rate of 90% or more (almost completely withered))	4 (Herbicidal rate of 70% or more and less than 90%)	5 (Herbicidal rate of 90% or more (almost completely withered))	0 (Herbicidal rate of 5% or less (almost no effect))	0 (Herbicidal rate of 5% or less (almost no effect))	0 (Herbicidal rate of 5% or less (almost no effect))	0 (Herbicidal rate of 5% or less (almost no effect))	0 (Herbicidal rate of 5% or less (almost no effect))	0 (Herbicidal rate of 5% or less (almost no effect))	0 (Herbicidal rate of 5% or less (almost no effect))	0 (Herbicidal rate of 5% or less (almost no effect))	3 (Herbicidal rate of 40% or more and less than 70%)	0 (Herbicidal rate of 5% or less (almost no effect))	0 (Herbicidal rate of 5% or less (almost no effect))	3 (Herbicidal rate of 40% or more and less than 70%)	0 (Herbicidal rate of 5% or less (almost no effect))	3 (Herbicidal rate of 40% or more and less than 70%)	Herbicidal effect by foliage application, H: barnyard grass (barnyard grass [16]): 3 (Herbicidal rate of 40% or more and less than 70%); Herbicidal effect by foliage application, I: wild oat (wild oat [17]): 0 (Herbicidal rate of 5% or less (almost no effect)); Herbicidal effect by foliage application, J: blackgrass (blackgrass [18]): 0 (Herbicidal rate of 5% or less (almost no effect)); Herbicidal effect by foliage application, K: Italian ryegrass (Italian ryegrass [19]): 3 (Herbicidal rate of 40% or more and less than 70%); Herbicidal effect by foliage application, L: windgrass (windgrass [20]): 0 (Herbicidal rate of 5% or less (almost no effect)); Herbicidal effect by foliage application, M: velvetleaf (velvetleaf [21]): 5 (Herbicidal rate of 90% or more (almost completely withered)); Herbicidal effect by foliage application, N: redroot pigweed (redroot pigweed [22]): 5 (Herbicidal rate of 90% or more (almost completely withered)); Herbicidal effect by foliage application, O: lambsquarters (lambsquarters [23]): 4 (Herbicidal rate of 70% or more and less than 90%); Herbicidal effect by foliage application, P: chickweed (chickweed [24]): 5 (Herbicidal rate of 90% or more (almost completely withered)); Herbicidal effect by foliage application, R: persian speedwell (persian speedwell [25]): 5 (Herbicidal rate of 90% or more (almost completely withered))
CCOc1ccccc1-c1sc2c(C)cccc2c1-c1c(O)c(C)nn(C)c1=O [4-112]	3 (Herbicidal rate of 40% or more and less than 70%)	3 (Herbicidal rate of 40% or more and less than 70%)	0 (Herbicidal rate of 5% or less (almost no effect))	5 (Herbicidal rate of 90% or more (almost completely withered))	4 (Herbicidal rate of 70% or more and less than 90%)	5 (Herbicidal rate of 90% or more (almost completely withered))	3 (Herbicidal rate of 40% or more and less than 70%)	4 (Herbicidal rate of 70% or more and less than 90%)	3 (Herbicidal rate of 40% or more and less than 70%)	0 (Herbicidal rate of 5% or less (almost no effect))	2 (Herbicidal rate of 20% or more and less than 40%)	3 (Herbicidal rate of 40% or more and less than 70%)	4 (Herbicidal rate of 70% or more and less than 90%)	3 (Herbicidal rate of 40% or more and less than 70%)	4 (Herbicidal rate of 70% or more and less than 90%)	3 (Herbicidal rate of 40% or more and less than 70%)	3 (Herbicidal rate of 40% or more and less than 70%)	5 (Herbicidal rate of 90% or more (almost completely withered))	4 (Herbicidal rate of 70% or more and less than 90%)	5 (Herbicidal rate of 90% or more (almost completely withered))	Herbicidal effect by foliage application, H: barnyard grass (barnyard grass [16]): 4 (Herbicidal rate of 70% or more and less than 90%); Herbicidal effect by foliage application, I: wild oat (wild oat [17]): 4 (Herbicidal rate of 70% or more and less than 90%); Herbicidal effect by foliage application, J: blackgrass (blackgrass [18]): 5 (Herbicidal rate of 90% or more (almost completely withered)); Herbicidal effect by foliage application, K: Italian ryegrass (Italian ryegrass [19]): 4 (Herbicidal rate of 70% or more and less than 90%); Herbicidal effect by foliage application, L: windgrass (windgrass [20]): 5 (Herbicidal rate of 90% or more (almost completely withered)); Herbicidal effect by foliage application, M: velvetleaf (velvetleaf [21]): 5 (Herbicidal rate of 90% or more (almost completely withered)); Herbicidal effect by foliage application, N: redroot pigweed (redroot pigweed [22]): 5 (Herbicidal rate of 90% or more (almost completely withered)); Herbicidal effect by foliage application, O: lambsquarters (lambsquarters [23]): 5 (Herbicidal rate of 90% or more (almost completely withered)); Herbicidal effect by foliage application, P: chickweed (chickweed [24]): 5 (Herbicidal rate of 90% or more (almost completely withered)); Herbicidal effect by foliage application, R: persian speedwell (persian speedwell [25]): 5 (Herbicidal rate of 90% or more (almost completely withered))
